In paper PMC6527222 (PLoS ONE, 2019):
“And” between values parts separate entries of the source, which are not always exact repeats. Equal values may be shown once. Read-outs that look alike come from different tables or passages of the source.

Assays:
[1] = system: JB6 P+ cells; test: Anchorage-independent growth assay in soft agar (EGF-induced JB6 P+ colony formation); format: cell-based, mouse
Description: Ten ng/mL EGF was used to promote the anchorage-independent growth of JB6 cells. […] Plates were incubated at 37°C, 5% CO2 for 14 days. Colonies with greater than ten cells were counted manually under a microscope. […] Normalization allowed for comparison of data over a range of JB6 P+ cell cultures, passages, and experimental time for the shRNA studies, as well as control for variation in the EGF response, and importantly allowed for a direct comparison to all concentration-response experiments including the toxicity assays. […] All group sizes were determined via previous studies to provide statistically meaningful data. In the soft agar assays, key results were repeated with different JB6 P+ cells to confirm the results. Similarly, the shRNA studies were conducted with three independent concentration-response curves with different JB6 P+ cell stocks. […] For two sample comparisons a t-test was utilized, and when comparing multiple samples a One-, Two-, or Three-Factor ANOVA followed by Tukey-Kramer post hoc test was utilized depending on the data. For all tests, statistical difference was donated when p < 0.05. […] The I[…]*PSD is expressed in x-axis units (log [M]) as is an IC50 and it represents the first concentration where it is expected to observe a statistical decrease in the measured signal. […] Using the formula provided by GraphPad Prism or a straight line for the point-to-point graphs, the X-axis value for point Y was determined. The error is ascribed to this measurement via adding and subtracting the pooled standard deviation (PSD) to/from point Y generating point Y ± PSD. The two new points were then transformed to the X-axis units as was done for point Y creating an asymmetric error in sigmoidal plots. When the error was asymmetric, the larger error value was chosen to err on the conservative side. See S1 Fig for a pictoral explination of the method. The data is presented as I[…]*PSD ± error.

[2] = system: JB6 P+ cells; test: Soft agar assay with competitive adrenergic receptor antagonists; format: cell-based; conditions: Mus musculus, alone
Description: Ten ng/mL EGF was used to promote the anchorage-independent growth of JB6 cells. […] Plates were incubated at 37°C, 5% CO2 for 14 days. Colonies with greater than ten cells were counted manually under a microscope. Antagonists identified in our assays as ineffective at blocking EGF-mediated transformation of JB6 P+ cells yet displaying no or little toxicity were used as competitive antagonists towards carvedilol-mediated prevention of EGF-induced transformation of JB6 P+ cells.

[3] = system: JB6 P+ cells; test: Modified seven-day soft agar assay in shRNA lentivirus infected JB6 P+ cells; format: cell-based, mouse; conditions: for IC50: Mus musculus
Description: Knockdown of the β2-AR via the Adrb2 shRNA lentivirus was examined via seeding 1x10^4 JB6 P+ cells/well of a 6-well plate in standard growth media (see above). 24 hr after seeding, the growth media was removed from attached cells and replaced with 2 ml EMEM containing 4% heat-inactivated FBS without antibiotics and […] polybrene. 1.5 ml lentiviral shRNA stocks of either Adrb2 or scrambled control were added to appropriate wells and plates were centrifuged at 1,000 g at room temperature for 1 hr. Following centrifugation, media was replaced with 3 ml EMEM lacking antibiotics and grown at 37°C. After 2, 3, 7, and 10 days of growth, cells were trypsinized, collected and centrifuged at 300g for 5 min. Cells were washed with 1 ml PBS, and RNA was extracted using Qiagen’s RNeasy Mini kit. RNA was reverse transcribed into cDNA using Applied Biosystems cDNA reverse transcription kit (Invitrogen) and stored at -20°C for future use.
β2-AR shRNA lentivirus infected JB6 P+ cells were utilized in modified anchorage-independent growth assays in soft agar. The procedure was shortened to seven days because the shRNA-mediated β2-AR knockdown persisted up to ten days. Infection of the cells occurred as described in the verification of effective shRNA-mediated β2-AR knockdown, and the cells were grown for three days, then they were added to the agar as described in the anchorage-independent growth assays in soft agar section. The colonies were counted after seven days in culture; thus, matching the ten days of β2-AR knockdown.

[4] = system: hairless mice (UV-induced skin thickening); test: Eight dose UV exposure, bi-folded epidermal thickness in hairless wild type and β2-AR knockout mice; format: in vivo, mouse; conditions: 5 μM in 200 μL acetone topically every other day, 200 mJ/cm^2 UV, eight irradiations
Description: The Western University of Health Sciences’ Institutional Animal Care and Use Committee (WesternU IACUC) approved all animal studies prior to initiating any experiments. The animal studies were carried out under WesternU IACUC recommendations and guidelines, which follow NIH guidelines. Mice had access to water and food ad libitum and housed on a 12-hour light/dark cycle with 35% humidity. Homozygous β1-AR and β2-AR null mice (Adrb1^tm1Bkk Adrb2^tm1Bkk/J Stock Number 003810) were purchased from Jackson Laboratory (Bar Harbor, ME); the double knockout mice were characterized previously. The double knockout mice were bred with C57BL/6J from Jackson Lab to generate a heterozygous F1 generation. The F1 generation was bred together to generate the F2 generation of which 1/16th of the offspring were a β2-AR knockout mouse. SKH-1 mice purchased from Charles River (Wilmington, MA) were bred with the β2-AR knockout mice generating a second heterozygous F1 generation. The F1 generation was bred together to generate the F2 generation of which 1/16th of the offspring were a hairless β2-AR knockout mouse. The F2 generation was backcrossed with a new batch of SKH-1 from Charles River to generate mice more efficiently. The mice used in this study are 75% SKH-1 and 25% mixed background. Following experimentation, and to cull the unused mice in a colony, mice were euthanized via exposure to 32% Isoflurane followed by cervical dislocation to ensure euthanization prior to disposal.
The first two weeks were pretreatment and the second two weeks were during the UV irradiation procedure, but drugs were applied the day after UV exposure to avoid sunscreen effects. All groups involved with UV were irradiated with 200 mJ/cm^2 dose of UV every other day for a total of eight irradiations. Bi-folded epidermal thickness was measured using a digital caliper before drug treatment on non-radiation days. Three skin thickness measurements were taken along the left, middle, and right dorsal epidermal layer, and the mean thickness was recorded for each mouse.

[5] = system: JB6 P+ cells; conditions: previous data, cited from earlier work
[6] = system: β2-AR; design: method as in as printed in each cell (43-46, 48-54, 56-58); conditions: as described in the references; ref (43-46, 48-54, 56-58); cited from earlier work
[7] = carvedilol cohort versus non-carvedilol cohort; cited from earlier work
[8] = system: A549, lung tumor, cells; conditions: cited from earlier work

With `COc1ccccc1OCCNCC(O)COc1cccc2[nH]c3ccccc3c12` (stereo not shown) [Carvedilol] the “Soft Agar Assay Log IC50” value ([1]; 10 ng/mL EGF, 14 days, negative log value) was -6.61 ± 0.06 log [M], the IC50 ([1]; Mus musculus, 336 h, 10 ng/mL EGF, 14 days, negative log value, read-out: Soft Agar Assay Log IC50 (converted)) was 251 nM and the Emax ([1]; Mus musculus, efficacy of inhibition of colony formation, reported if non-toxic) was 94.7 ± 4.31%. The IC50 ([2]; CGP 12177 experiment (Fig 5B)) was 331 nM, the IC50 ([2]; HEAT HCl experiment (Fig 5C)) was 275 nM and the IC50 ([2]; nadolol experiment (Fig 5A)) was 282 nM. It also gave an IC50 ([3]; 168 h, independent experiments 1-3, seven days, read-out: ardb2 shRNA Mean logIC50 (converted)) of 718 nM, an IC50 ([3]; 168 h, scrambled control shRNA, three experiments combined (Fig 6B), seven days, read-out: LogIC50 (converted)) of 813 nM and an IC50 ([3]; 168 h, β2-AR-targeted shRNA, three experiments combined (Fig 6B), seven days, read-out: LogIC50 (converted)) of 1000 nM. For the same molecule, the IC50 ([3]; line Mean, read-out: Scrambled shRNA Mean logIC50, mean of three experiments (converted)) was 714 nM, the IC50 ([3]; line Mean, read-out: ardb2 shRNA Mean logIC50, mean of three experiments (converted)) was 979 nM and the “ardb2 shRNA Mean logIC50” value ([3]; independent experiments 1-3, seven days) was -5.965 log [M] and -5.917 log [M]. For the same molecule, the “effect on UV-induced skin thickening, words” value ([4]; wild type mice) was “statistical difference from the UV control on day 8 onward”, the “effect on UV-induced skin thickening, words” value ([4]; β2-AR knockout mice) was “greater effects in the knockout mice” and the “effect on EGF-mediated transformation of JB6 P+ cells, words” value [5] was “completely prevents”. For the same molecule, the IC50 ([5]; read-out: IC50, inhibition of EGF-mediated transformation) was 782 nM, the “Pharmacological property at β2-AR” value [6] was “Biased agonist/ partial ERK agonist [43, 44]” and the “reduction in the incidence of all types of cancer” value [7] was 26%. The “reducing the growth of injected A549 cells in vivo, words” value [8] was “not effective”.
